Measurements published in the supplement of paper PMC10307832.

How the values were obtained:
Test in all cases: relative viability (nuclei count vs DMSO), 5 days (fraction); higher = more cells survive
PC-14 = test system: PC-14
Outline: (§1)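 Dosing by pin tool came one day after lung cancer cell lines were seeded in 1536-well plates, using either one drug or a fixed anchor-drug dose plus five library-drug doses (not always all listed) in √10 steps. After 5 days, nuclei were counted on 4× images. Relative viability is treated-well nuclei count divided by vehicle-well nuclei count, and values are medians of duplicate plates.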

LCLC-97TM1 = test system: LCLC-97TM1
Outline: as §1

NCI-H647 = test system: NCI-H647
Outline: as §1

NCI-H1734 = test system: NCI-H1734
Outline: as §1

LXF-289 = test system: LXF-289
Outline: as §1

NCI-H727 = test system: NCI-H727
Outline: as §1

NCI-H1915 = test system: NCI-H1915
Outline: as §1

NCI-H1993 = test system: NCI-H1993
Outline: as §1

NCI-H2085 = test system: NCI-H2085
Outline: as §1

NCI-H322M = test system: NCI-H322M
Outline: as §1

HOP-62 = test system: HOP-62
Outline: as §1

NCI-H661 = test system: NCI-H661
Outline: as §1

EPLC-272H = test system: EPLC-272H
Outline: as §1

NCI-H2126 = test system: NCI-H2126
Outline: as §1

SW 1573 = test system: SW 1573
Outline: as §1

H3255 = test system: H3255
Outline: as §1

SK-LU-1 = test system: SK-LU-1
Outline: as §1

NCI-H2023 = test system: NCI-H2023
Outline: as §1

NCI-H2347 = test system: NCI-H2347
Outline: as §1

EMC-BAC-2 = test system: EMC-BAC-2
Outline: as §1

NCI-H2009 = test system: NCI-H2009
Outline: as §1

Cc1sc2c(c1C)C(c1ccc(Cl)cc1)=N[C@@H](CC(=O)OC(C)(C)C)c1nnc(C)n1-2 [JQ1] + Nc1ncn([C@H]2C[C@H](O)[C@@H](CO)O2)c(=O)n1 [Decitabine] (partner 2 µM)
relative viability (PC-14; first compound 0.04 µM): 0.188 | relative viability (PC-14; first compound 0.1265 µM): 0.19 | relative viability (PC-14; first compound 0.4 µM): 0.185 | relative viability (PC-14; first compound 1.265 µM): 0.0999 | relative viability (PC-14; first compound 4 µM): 0.117 | relative viability (LCLC-97TM1; first compound 0.04 µM): 0.231 | relative viability (LCLC-97TM1; first compound 0.1265 µM): 0.223 | relative viability (LCLC-97TM1; first compound 0.4 µM): 0.188 | relative viability (LCLC-97TM1; first compound 1.265 µM): 0.156 | relative viability (LCLC-97TM1; first compound 4 µM): 0.125 | relative viability (NCI-H647; first compound 0.04 µM): 0.309 | relative viability (NCI-H647; first compound 0.1265 µM): 0.331 | relative viability (NCI-H647; first compound 0.4 µM): 0.344 | relative viability (NCI-H647; first compound 1.265 µM): 0.25 | relative viability (NCI-H647; first compound 4 µM): 0.203 | relative viability (NCI-H1734; first compound 0.04 µM): 0.492 | relative viability (NCI-H1734; first compound 0.1265 µM): 0.549 | relative viability (NCI-H1734; first compound 0.4 µM): 0.523 | relative viability (NCI-H1734; first compound 1.265 µM): 0.408 | relative viability (NCI-H1734; first compound 4 µM): 0.364 | relative viability (LXF-289; first compound 0.04 µM): 0.368 | relative viability (LXF-289; first compound 0.1265 µM): 0.401 | relative viability (LXF-289; first compound 0.4 µM): 0.344 | relative viability (LXF-289; first compound 1.265 µM): 0.226 | relative viability (LXF-289; first compound 4 µM): 0.222 | relative viability (NCI-H727; first compound 0.04 µM): 1 | relative viability (NCI-H727; first compound 0.1265 µM): 0.877 | relative viability (NCI-H727; first compound 0.4 µM): 0.506 | relative viability (NCI-H727; first compound 1.265 µM): 0.597 | relative viability (NCI-H727; first compound 4 µM): 0.649 | relative viability (NCI-H1915; first compound 0.04 µM): 0.279 | relative viability (NCI-H1915; first compound 0.4 µM): 0.255 | relative viability (NCI-H1915; first compound 1.265 µM): 0.246 | relative viability (NCI-H1915; first compound 4 µM): 0.248 | relative viability (NCI-H1993; first compound 0.04 µM): 0.586 | relative viability (NCI-H1993; first compound 0.1265 µM): 0.636 | relative viability (NCI-H1993; first compound 0.4 µM): 0.553 | relative viability (NCI-H1993; first compound 1.265 µM): 0.538 | relative viability (NCI-H1993; first compound 4 µM): 0.475 | relative viability (NCI-H2085; first compound 0.04 µM): 0.538 | relative viability (NCI-H2085; first compound 0.1265 µM): 0.595 | relative viability (NCI-H2085; first compound 0.4 µM): 0.509 | relative viability (NCI-H2085; first compound 1.265 µM): 0.454 | relative viability (NCI-H2085; first compound 4 µM): 0.473 | relative viability (NCI-H322M; first compound 0.04 µM): 0.631 | relative viability (NCI-H322M; first compound 0.1265 µM): 0.886 | relative viability (NCI-H322M; first compound 0.4 µM): 0.641 | relative viability (NCI-H322M; first compound 1.265 µM): 0.594 | relative viability (NCI-H322M; first compound 4 µM): 0.592 | relative viability (HOP-62; first compound 0.04 µM): 0.238 | relative viability (HOP-62; first compound 0.1265 µM): 0.19 | relative viability (HOP-62; first compound 0.4 µM): 0.201 | relative viability (HOP-62; first compound 1.265 µM): 0.156 | relative viability (HOP-62; first compound 4 µM): 0.128 | relative viability (NCI-H661; first compound 0.04 µM): 0.505 | relative viability (NCI-H661; first compound 0.1265 µM): 0.47 | relative viability (NCI-H661; first compound 0.4 µM): 0.527 | relative viability (NCI-H661; first compound 1.265 µM): 0.475 | relative viability (NCI-H661; first compound 4 µM): 0.492 | relative viability (EPLC-272H; first compound 0.04 µM): 0.365 | relative viability (EPLC-272H; first compound 0.1265 µM): 0.352 | relative viability (EPLC-272H; first compound 0.4 µM): 0.323 | relative viability (EPLC-272H; first compound 1.265 µM): 0.246 | relative viability (EPLC-272H; first compound 4 µM): 0.253 | relative viability (NCI-H2126; first compound 0.04 µM): 0.591 | relative viability (NCI-H2126; first compound 0.1265 µM): 0.584 | relative viability (NCI-H2126; first compound 0.4 µM): 0.561 | relative viability (NCI-H2126; first compound 1.265 µM): 0.411 | relative viability (NCI-H2126; first compound 4 µM): 0.428 | relative viability (SW 1573; first compound 0.04 µM): 0.366 | relative viability (SW 1573; first compound 0.1265 µM): 0.443 | relative viability (SW 1573; first compound 0.4 µM): 0.393 | relative viability (SW 1573; first compound 1.265 µM): 0.216 | relative viability (SW 1573; first compound 4 µM): 0.275 | relative viability (H3255; first compound 0.04 µM): 0.562 | relative viability (H3255; first compound 0.4 µM): 0.539 | relative viability (H3255; first compound 1.265 µM): 0.305 | relative viability (H3255; first compound 4 µM): 0.249 | relative viability (SK-LU-1; first compound 0.04 µM): 0.614 | relative viability (SK-LU-1; first compound 0.1265 µM): 0.519 | relative viability (SK-LU-1; first compound 0.4 µM): 0.416 | relative viability (SK-LU-1; first compound 1.265 µM): 0.308 | relative viability (SK-LU-1; first compound 4 µM): 0.213 | relative viability (NCI-H2023; first compound 0.04 µM): 0.233 | relative viability (NCI-H2023; first compound 0.1265 µM): 0.228 | relative viability (NCI-H2023; first compound 0.4 µM): 0.198 | relative viability (NCI-H2023; first compound 1.265 µM): 0.14 | relative viability (NCI-H2023; first compound 4 µM): 0.13 | relative viability (NCI-H2347; first compound 0.04 µM): 0.664 | relative viability (NCI-H2347; first compound 0.1265 µM): 0.6 | relative viability (NCI-H2347; first compound 0.4 µM): 0.58 | relative viability (NCI-H2347; first compound 1.265 µM): 0.506 | relative viability (NCI-H2347; first compound 4 µM): 0.437 | relative viability (EMC-BAC-2; first compound 0.04 µM): 0.947 | relative viability (EMC-BAC-2; first compound 0.4 µM): 0.944 | relative viability (EMC-BAC-2; first compound 1.265 µM): 0.726 | relative viability (EMC-BAC-2; first compound 4 µM): 0.605 | relative viability (NCI-H2009; first compound 0.04 µM): 0.38 | relative viability (NCI-H2009; first compound 0.1265 µM): 0.296 | relative viability (NCI-H2009; first compound 0.4 µM): 0.354 | relative viability (NCI-H2009; first compound 1.265 µM): 0.276 | relative viability (NCI-H2009; first compound 4 µM): 0.213
